In ChEMBL document CHEMBL1135206, “Albumin affinity tags increase peptide half-life in vivo” (Bioorg Med Chem Lett, 2002):
*1 amine or outer side, *2 acyl side, *3 side chain or, on linkers, in order; H or OH if unused. Where a SMILES comes first, the peptide text is derived from it. Bridges are numbered along the chain shown (N, C = ends). [ ]: non-standard residue; d: D form. The star is where a group is joined. X3 = C[C@@H](C(=O)[*:2])N(Cc1ccccc1OC(F)(F)F)[*:1]; X5 = C[C@@H](C(=O)[*:2])N(Cc1cccc2ccccc12)[*:1]; 2Naphthylsulfonyl = O=S(=O)(c1ccc2ccccc2c1)*; X2 = O=C(CCC(=O)*)NS(=O)(=O)c1ccc2ccccc2c1; Benzoyl(4-Ph) = O=C(c1ccc(-c2ccccc2)cc1)*; Quinoline3carbonyl = O=C(c1cnc2ccccc2c1)*; X6 = O=C(c1ccc(-c2ccccc2[N+](=O)[O-])o1)*; Mts = Cc1cc(C)c(S(=O)(=O)*)c(C)c1; Quinaldoyl = O=C(c1ccc2ccccc2n1)*; NH(4-Cl-phenyl) = Clc1ccc(N*)cc1; CO = O=C([*:1])[*:2]; X4 = Cc1cccc(N*)c1

Key:
Coagulation factor VII = molecular target: T1, Coagulation factor VII (Homo sapiens, UniProt P08709); assay: Inhibition of amino terminally biotinylated E-76 peptide binding to immobilized fVIIa
T1 sequence (P08709 whole entry): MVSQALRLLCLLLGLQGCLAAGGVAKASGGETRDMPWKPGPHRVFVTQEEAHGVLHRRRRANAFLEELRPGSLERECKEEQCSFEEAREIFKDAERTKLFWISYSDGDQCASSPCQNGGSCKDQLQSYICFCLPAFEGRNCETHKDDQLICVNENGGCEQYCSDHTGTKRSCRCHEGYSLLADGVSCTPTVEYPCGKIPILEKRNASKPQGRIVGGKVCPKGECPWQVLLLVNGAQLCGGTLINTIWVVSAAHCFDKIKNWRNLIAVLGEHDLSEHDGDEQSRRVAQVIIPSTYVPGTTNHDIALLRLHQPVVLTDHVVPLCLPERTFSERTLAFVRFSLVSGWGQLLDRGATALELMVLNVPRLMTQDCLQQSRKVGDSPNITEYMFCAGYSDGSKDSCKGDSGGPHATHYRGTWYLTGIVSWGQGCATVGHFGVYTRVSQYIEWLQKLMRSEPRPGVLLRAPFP

Albumin = Albumin (Homo sapiens, UniProt P02768); assay: In vitro binding affinity for human serum albumin.; set-up: unit not given here
Sequence of Albumin (P02768 whole entry): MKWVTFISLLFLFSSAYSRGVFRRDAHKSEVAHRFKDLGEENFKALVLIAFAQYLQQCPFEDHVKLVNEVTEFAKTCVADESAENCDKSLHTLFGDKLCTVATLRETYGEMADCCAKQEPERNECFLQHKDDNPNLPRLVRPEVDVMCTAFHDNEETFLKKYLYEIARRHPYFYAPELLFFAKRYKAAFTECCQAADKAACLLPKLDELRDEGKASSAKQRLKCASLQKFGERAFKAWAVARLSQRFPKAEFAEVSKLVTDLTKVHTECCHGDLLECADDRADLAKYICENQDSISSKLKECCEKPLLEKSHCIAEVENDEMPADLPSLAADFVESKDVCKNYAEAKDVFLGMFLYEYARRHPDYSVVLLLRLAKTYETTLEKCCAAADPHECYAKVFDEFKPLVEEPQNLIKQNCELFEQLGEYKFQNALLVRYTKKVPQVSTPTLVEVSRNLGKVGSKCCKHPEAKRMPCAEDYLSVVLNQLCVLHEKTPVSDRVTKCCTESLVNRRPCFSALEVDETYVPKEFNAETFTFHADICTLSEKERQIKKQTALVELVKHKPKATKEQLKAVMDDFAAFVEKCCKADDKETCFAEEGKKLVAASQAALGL

[1] = Mean retention time in male New Zealand white rabbits after i.v. administration at 2.0 mg/kg; assay type: ADME, organism-based, Oryctolagus cuniculus; set-up: dose 2 mg/kg, route intravenous; details: rabbit, in vivo, iv
[2] = Plasma half-life in male New Zealand white rabbits after i.v. administration at 2.0 mg/kg; assay type: ADME, organism-based, Oryctolagus cuniculus; set-up: dose 2 mg/kg, route intravenous; details: rabbit, iv
[3] = Clearance in male New Zealand white rabbits after i.v. administration at 2.0 mg/kg; assay type: ADME, organism-based, Oryctolagus cuniculus; set-up: dose 2 mg/kg, route intravenous; details: rabbit, in vivo, iv
[4] = Plasma half-life in male New Zealand white rabbits after administration via an indwelling catheter in an ear vein at 5 mg/kg; assay type: ADME, organism-based, Oryctolagus cuniculus; set-up: dose 5 mg/kg; details: rabbit, iv
[5] = Mean retention time in male New Zealand white rabbits after administration via an indwelling catheter in an ear vein at 5 mg/kg; assay type: ADME, organism-based, Oryctolagus cuniculus; set-up: dose 5 mg/kg; details: rabbit, in vivo, iv
[6] = Clearance in male New Zealand white rabbits after administration via an indwelling catheter in an ear vein at 5 mg/kg; assay type: ADME, organism-based, Oryctolagus cuniculus; set-up: dose 5 mg/kg; details: rabbit, in vivo, iv

| Structure (SMILES) | IC50 (Coagulation factor VII) | Binding affinity (Albumin) | other results |
| --- | --- | --- | --- |
| CC[C@H](C)[C@@H]1NC(=O)[C@H](CCCNC(=N)N)NC(=O)[C@@H]2CCCN2C(=O)[C@H](CC(N)=O)NC(=O)[C@H](CC(=O)O)NC(=O)[C@@H](NC(=O)[C@H](CC(C)C)NC(=O)[C@H](C)NCc2cccc3ccccc23)CSSC[C@@H](C(=O)N[C@@H](CCC(N)=O)C(=O)N[C@@H](Cc2ccccc2)C(=O)N[C@H](C(=O)N[C@@H](CCC(=O)O)C(=O)NCC(N)=O)C(C)C)NC(=O)[C@H](Cc2ccc(O)cc2)NC(=O)[C@H](Cc2c[nH]c3ccccc23)NC(=O)[C@H](CCCNC(=N)N)NC(=O)[C@H](CC(=O)O)NC1=O (H-[X5]LCDNPRIDRWYCQFVEG-NH2; disulfide 3-13) | 1.6 nM | 0.69 | – |
| CC[C@H](C)[C@@H]1NC(=O)[C@H](CCCNC(=N)N)NC(=O)[C@@H]2CCCN2C(=O)[C@H](CC(N)=O)NC(=O)[C@H](CC(=O)O)NC(=O)[C@@H](NC(=O)[C@H](CC(C)C)NC(=O)[C@H](C)NC(=O)Nc2cccc(C)c2)CSSC[C@@H](C(=O)N[C@@H](CCC(N)=O)C(=O)N[C@@H](Cc2ccccc2)C(=O)N[C@H](C(=O)N[C@@H](CCC(=O)O)C(=O)NCC(N)=O)C(C)C)NC(=O)[C@H](Cc2ccc(O)cc2)NC(=O)[C@H](Cc2c[nH]c3ccccc23)NC(=O)[C@H](CCCNC(=N)N)NC(=O)[C@H](CC(=O)O)NC1=O ({X4-CO}-ALCDNPRIDRWYCQFVEG-NH2; disulfide 3-13) | 1.8 nM | 0.59 | – |
| CC[C@H](C)[C@@H]1NC(=O)[C@H](CCCNC(=N)N)NC(=O)[C@@H]2CCCN2C(=O)[C@H](CC(N)=O)NC(=O)[C@H](CC(=O)O)NC(=O)[C@@H](NC(=O)[C@H](CC(C)C)NC(=O)[C@H](C)NS(=O)(=O)c2ccc3ccccc3c2)CSSC[C@@H](C(=O)N[C@@H](CCC(N)=O)C(=O)N[C@@H](Cc2ccccc2)C(=O)N[C@H](C(=O)N[C@@H](CCC(=O)O)C(=O)NCC(N)=O)C(C)C)NC(=O)[C@H](Cc2ccc(O)cc2)NC(=O)[C@H](Cc2c[nH]c3ccccc23)NC(=O)[C@H](CCCNC(=N)N)NC(=O)[C@H](CC(=O)O)NC1=O (2Naphthylsulfonyl-ALCDNPRIDRWYCQFVEG-NH2; disulfide 3-13) | 20.4 nM | 0.92 | – |
| CC[C@H](C)[C@@H]1NC(=O)[C@H](CCCNC(=N)N)NC(=O)[C@@H]2CCCN2C(=O)[C@H](CC(N)=O)NC(=O)[C@H](CC(=O)O)NC(=O)[C@@H](NC(=O)[C@H](CC(C)C)NC(=O)[C@H](C)NC(=O)c2ccc(-c3ccccc3[N+](=O)[O-])o2)CSSC[C@@H](C(=O)N[C@@H](CCC(N)=O)C(=O)N[C@@H](Cc2ccccc2)C(=O)N[C@H](C(=O)N[C@@H](CCC(=O)O)C(=O)NCC(N)=O)C(C)C)NC(=O)[C@H](Cc2ccc(O)cc2)NC(=O)[C@H](Cc2c[nH]c3ccccc23)NC(=O)[C@H](CCCNC(=N)N)NC(=O)[C@H](CC(=O)O)NC1=O (X6-ALCDNPRIDRWYCQFVEG-NH2; disulfide 3-13) | 1 nM | 0.79 | – |
| CC[C@H](C)[C@@H]1NC(=O)[C@H](CCCN=C(N)N)NC(=O)[C@@H]2CCCN2C(=O)[C@H](CC(N)=O)NC(=O)[C@H](CC(=O)O)NC(=O)[C@@H](NC(=O)[C@H](CC(C)C)NC(=O)[C@H](C)NCc2ccccc2OC(F)(F)F)CSSC[C@@H](C(=O)N[C@@H](CCC(N)=O)C(=O)N[C@@H](Cc2ccccc2)C(=O)N[C@H](C(=O)N[C@@H](CCC(=O)O)C(=O)NCC(N)=O)C(C)C)NC(=O)[C@H](Cc2ccc(O)cc2)NC(=O)[C@H](Cc2c[nH]c3ccccc23)NC(=O)[C@H](CCCN=C(N)N)NC(=O)[C@H](CC(=O)O)NC1=O (H-[X3]LCDNPRIDRWYCQFVEG-NH2; disulfide 3-13) | 13.4 nM | 0.93 | – |
| CC[C@H](C)[C@@H]1NC(=O)[C@H](CCCN=C(N)N)NC(=O)[C@@H]2CCCN2C(=O)[C@H](CC(N)=O)NC(=O)[C@H](CC(=O)O)NC(=O)[C@@H](NC(=O)[C@H](CC(C)C)NC(=O)[C@H](C)NC(=O)Nc2ccc(Cl)cc2)CSSC[C@@H](C(=O)N[C@@H](CCC(N)=O)C(=O)N[C@@H](Cc2ccccc2)C(=O)N[C@H](C(=O)N[C@@H](CCC(=O)O)C(=O)NCC(N)=O)C(C)C)NC(=O)[C@H](Cc2ccc(O)cc2)NC(=O)[C@H](Cc2c[nH]c3ccccc23)NC(=O)[C@H](CCCN=C(N)N)NC(=O)[C@H](CC(=O)O)NC1=O ({NH(4-Cl-phenyl)-CO}-ALCDNPRIDRWYCQFVEG-NH2; disulfide 3-13) | 13.4 nM | 0.65 | – |

Continued, in another order:

| IC50 (Coagulation factor VII) | Binding affinity (Albumin) | Structure (SMILES) | other results |
| --- | --- | --- | --- |
| 11.8 nM | 0.64 | CC[C@H](C)[C@@H]1NC(=O)[C@H](CCCN=C(N)N)NC(=O)[C@@H]2CCCN2C(=O)[C@H](CC(N)=O)NC(=O)[C@H](CC(=O)O)NC(=O)[C@@H](NC(=O)[C@H](CC(C)C)NC(=O)[C@H](C)NC(=O)c2cnc3ccccc3c2)CSSC[C@@H](C(=O)N[C@@H](CCC(N)=O)C(=O)N[C@@H](Cc2ccccc2)C(=O)N[C@H](C(=O)N[C@@H](CCC(=O)O)C(=O)NCC(N)=O)C(C)C)NC(=O)[C@H](Cc2ccc(O)cc2)NC(=O)[C@H](Cc2c[nH]c3ccccc23)NC(=O)[C@H](CCCN=C(N)N)NC(=O)[C@H](CC(=O)O)NC1=O (Quinoline3carbonyl-ALCDNPRIDRWYCQFVEG-NH2; disulfide 3-13) | – |
| 10 nM | 0.82 | CC[C@H](C)[C@@H]1NC(=O)[C@H](CCCNC(=N)N)NC(=O)[C@@H]2CCCN2C(=O)[C@H](CC(N)=O)NC(=O)[C@H](CC(=O)O)NC(=O)[C@@H](NC(=O)[C@H](CC(C)C)NC(=O)[C@H](C)NS(=O)(=O)c2c(C)cc(C)cc2C)CSSC[C@@H](C(=O)N[C@@H](CCC(N)=O)C(=O)N[C@@H](Cc2ccccc2)C(=O)N[C@H](C(=O)N[C@@H](CCC(=O)O)C(=O)NCC(N)=O)C(C)C)NC(=O)[C@H](Cc2ccc(O)cc2)NC(=O)[C@H](Cc2c[nH]c3ccccc23)NC(=O)[C@H](CCCNC(=N)N)NC(=O)[C@H](CC(=O)O)NC1=O (Mts-ALCDNPRIDRWYCQFVEG-NH2; disulfide 3-13) | – |
| 1 nM | 0.97 | CC[C@H](C)[C@@H]1NC(=O)[C@H](CCCN=C(N)N)NC(=O)[C@@H]2CCCN2C(=O)[C@H](CC(N)=O)NC(=O)[C@H](CC(=O)O)NC(=O)[C@@H](NC(=O)[C@H](CC(C)C)NC(=O)[C@H](C)NC(=O)CCC(=O)NS(=O)(=O)c2ccc3ccccc3c2)CSSC[C@@H](C(=O)N[C@@H](CCC(N)=O)C(=O)N[C@@H](Cc2ccccc2)C(=O)N[C@H](C(=O)N[C@@H](CCC(=O)O)C(=O)NCC(N)=O)C(C)C)NC(=O)[C@H](Cc2ccc(O)cc2)NC(=O)[C@H](Cc2c[nH]c3ccccc23)NC(=O)[C@H](CCCN=C(N)N)NC(=O)[C@H](CC(=O)O)NC1=O (X2-ALCDNPRIDRWYCQFVEG-NH2; disulfide 3-13) | MRT [1]: 35 min; half-life [2]: 30 min; clearance [3]: 1.6 mL/min/kg |
| 2.9 nM | 0.64 | CC[C@H](C)[C@@H]1NC(=O)[C@H](CCCN=C(N)N)NC(=O)[C@@H]2CCCN2C(=O)[C@H](CC(N)=O)NC(=O)[C@H](CC(=O)O)NC(=O)[C@@H](NC(=O)[C@H](CC(C)C)NC(=O)[C@H](C)NC(=O)c2ccc3ccccc3n2)CSSC[C@@H](C(=O)N[C@@H](CCC(N)=O)C(=O)N[C@@H](Cc2ccccc2)C(=O)N[C@H](C(=O)N[C@@H](CCC(=O)O)C(=O)NCC(N)=O)C(C)C)NC(=O)[C@H](Cc2ccc(O)cc2)NC(=O)[C@H](Cc2c[nH]c3ccccc23)NC(=O)[C@H](CCCN=C(N)N)NC(=O)[C@H](CC(=O)O)NC1=O (Quinaldoyl-ALCDNPRIDRWYCQFVEG-NH2; disulfide 3-13) | – |
| 1.1 nM | 0.21 | CC[C@H](C)[C@@H]1NC(=O)[C@H](CCCN=C(N)N)NC(=O)[C@@H]2CCCN2C(=O)[C@H](CC(N)=O)NC(=O)[C@H](CC(=O)O)NC(=O)[C@@H](NC(=O)[C@H](CC(C)C)NC(=O)[C@H](C)NC(C)=O)CSSC[C@@H](C(=O)N[C@@H](CCC(N)=O)C(=O)N[C@@H](Cc2ccccc2)C(=O)N[C@H](C(=O)N[C@@H](CCC(=O)O)C(=O)NCC(N)=O)C(C)C)NC(=O)[C@H](Cc2ccc(O)cc2)NC(=O)[C@H](Cc2c[nH]c3ccccc23)NC(=O)[C@H](CCCN=C(N)N)NC(=O)[C@H](CC(=O)O)NC1=O (Ac-ALCDNPRIDRWYCQFVEG-NH2; disulfide 3-13) | half-life [4]: 5 min; MRT [5]: 3.2 min; clearance [6]: 33 mL/min/kg |
| 4 nM | 0.62 | CC[C@H](C)[C@@H]1NC(=O)[C@H](CCCN=C(N)N)NC(=O)[C@@H]2CCCN2C(=O)[C@H](CC(N)=O)NC(=O)[C@H](CC(=O)O)NC(=O)[C@@H](NC(=O)[C@H](CC(C)C)NC(=O)[C@H](C)NC(=O)c2ccc(-c3ccccc3)cc2)CSSC[C@@H](C(=O)N[C@@H](CCC(N)=O)C(=O)N[C@@H](Cc2ccccc2)C(=O)N[C@H](C(=O)N[C@@H](CCC(=O)O)C(=O)NCC(N)=O)C(C)C)NC(=O)[C@H](Cc2ccc(O)cc2)NC(=O)[C@H](Cc2c[nH]c3ccccc23)NC(=O)[C@H](CCCN=C(N)N)NC(=O)[C@H](CC(=O)O)NC1=O ({Benzoyl(4-Ph)}-ALCDNPRIDRWYCQFVEG-NH2; disulfide 3-13) | half-life [4]: 15 min; MRT [5]: 17 min; clearance [6]: 4.3 mL/min/kg |
